Assays:
[1] = system: corn (ZEAMD); test: Test 1 field trial, preemergence; format: in vivo, Zea mays ssp. indentata; conditions: hybrid Pioneer 34N43, corn (Zea mays ssp. indentata), in vivo
Text: (§1) Corn seeds (hybrid ‘Pioneer 34N43’) were planted in mid spring season, 3.8 cm deep in a silt loam soil having 4.6% organic matter and a pH of 6. Plots were 10.7 m long by 1.5 m wide with rows spaced 76 cm apart. Seeds were spaced 18 cm apart within the rows. The field was managed using conventional tillage practices. […] Results are summarized in Table 1 and are the means of the three replicates. […] Colby's Equation (Colby, S. R. “Calculating Synergistic and Antagonistic Responses of Herbicide Combinations,” Weeds, 15(1), pp 20-22 (1967)) calculates the expected additive effect of herbicidal mixtures, and for two active ingredients is of the form:
(§2) Pa+b=Pa+Pb−(PaPb/100) • wherein Pa+b is the percentage effect of the mixture expected from additive contribution of the individual components, • Pa is the observed percentage effect of the first active ingredient at the same use rate as in the mixture, and • Pb is the observed percentage effect of the second active ingredient at the same use rate as in the mixture.

[2] = system: yellow foxtail (SETLU); test: Test 1 field trial, preemergence; format: in vivo, Setaria glauca; conditions: 56 DAA
Text: as §1, §2

[3] = system: corn (ZEAMD); test: Test 5 field trial, postemergence; format: in vivo, Zea mays ssp. indentata; conditions: hybrid Pioneer 38H69, corn (Zea mays ssp. indentata), in vivo
Text: (§3) Corn seeds (hybrid ‘Pioneer 38H69’) were planted in mid spring season, 5.1 cm deep in a silty clay loam soil having 3% organic matter and a pH of 6.5. Plots were 9.1 m long by 3.0 m wide with rows spaced 76 cm apart. The field was managed using conventional tillage practices. […] All treatments included a surfactant except glufosinate treatments, both alone and in combination. […] Results are summarized in Table 5 and are the means of the three replicates.

[4] = system: velvetleaf (ABUTH); test: Test 5 field trial, postemergence; format: in vivo, Abutilon theophrasti
Text: as §3

[5] = system: common lambsquarters (CHEAL); test: Test 5 field trial, postemergence; format: in vivo, Chenopodium album
Text: as §3

[6] = system: giant foxtail (SETFA); test: Test 6 field trial, postemergence; format: in vivo, Setaria faberi
Text: Corn seeds (hybrid ‘Pioneer 35Y62’) were planted in mid spring season, 3.8 cm deep in a silt loam soil having 4% organic matter and a pH of 5.8. Plots were 10.7 m long by 1.5 m wide with rows spaced 76 cm apart. Seeds were spaced 18 cm apart within the rows. The field was managed using conventional tillage practices. […] All treatments included a surfactant except glufosinate treatments, both alone and in combination. […] Results are summarized in Table 6 and are the means of the three replicates.

[7] = system: corn (ZEAMD); test: Test 8 field trial, preemergence; format: in vivo, Zea mays ssp. indentata; conditions: hybrid Pioneer 31G96, corn (Zea mays ssp. indentata), in vivo, 56 days after application
Text: (§4) Corn seeds (hybrid ‘Pioneer 31G96’) were planted in mid spring season, 3.8 cm deep in a clay loam soil having 2% organic matter and a pH of 6.6. Plots were 6.1 m long by 3.0 m wide with rows spaced 76 cm apart. Seeds were spaced 15 cm apart within the rows. The field was managed using conventional tillage practices. […] A few of the weed species could not be evaluated at every timing. […] Results are the means of the three replicates.

[8] = system: velvetleaf (ABUTH); test: Test 8 field trial, preemergence; format: in vivo, Abutilon theophrasti
Text: as §4

[9] = system: jimsonweed (DATST); test: Test 8 field trial, preemergence; format: in vivo, Datura stramonium
Text: as §4

[10] = system: Pennsylvania smartweed (POLPY); test: Test 8 field trial, preemergence; format: in vivo, Polygonum pensylvanicum
Text: as §4

[11] = system: velvetleaf (ABUTH); test: Test 10 field trial, preemergence; format: in vivo, Abutilon theophrasti; conditions: 28 DAA
Text: (§5) Corn seeds (hybrid ‘Pioneer 33P65 RR’) were planted in mid spring season, 2.5 cm deep in a silt loam soil. Plots were 9.1 m long by 3.0 m wide with rows spaced 76 cm apart. The field was managed using conventional tillage practices. […] Results are the means of the three replicates.

[12] = system: common waterhemp (AMATA); test: Test 10 field trial, preemergence; format: in vivo, Amaranthus tamariscinus; conditions: 28 DAA
Text: as §5

[13] = system: common ragweed (AMBEL); test: Test 10 field trial, preemergence; format: in vivo, Ambrosia artemisiifolia; conditions: 28 DAA
Text: as §5

[14] = system: common cocklebur (XANST); test: Test 10 field trial, preemergence; format: in vivo, Xanthium strumarium ssp. strumarium; conditions: 28 DAA
Text: as §5

[15] = system: southern sandbur (CCHEC); test: Test 11 field trial, preemergence; format: in vivo, Cenchrus echinatus; set-up: scale not given here; conditions: alone or + atrazine 1500 or metolachlor 2500
Text: Corn seeds (hybrid ‘Pioneer 3041’) were planted in mid spring season, 5 cm deep in a clay soil having 2.6% organic matter and a pH of 5.6. Plots were 8 m long by 1.5 m wide with rows spaced 80 cm apart. Seeds were spaced 15 cm apart within the rows. The field was managed using conventional tillage practices. […] Treatments consisted of Compound 2 or
Goosegrass was not evaluated 16 or 91 days after application.

[16] = g a.i./ha: Cpd 2 50, S-Metolachlor 1870
[17] = g a.i./ha: Cpd 2 100, Atrazine 1680, S-Metolachlor 1870
[18] = g a.i./ha: Cpd 2 150, S-Metolachlor 1870
[19] = 16 DAA, Cpd 2 30 g a.i./ha alone or with glufosinate 470 or glyphosate 1120
[20] = 16 DAA, Cpd 2 60 g a.i./ha alone or with atrazine 1120, glufosinate 470 or glyphosate 1120
[21] = 31 DAA, Cpd 2 30 g a.i./ha alone or with glufosinate 470 or glyphosate 1120
[22] = 31 DAA, Cpd 2 60 g a.i./ha alone or with atrazine 1120, glufosinate 470 or glyphosate 1120
[23] = 19 DAA, g a.i./ha: Cpd 2 50, S-Metolachlor 1870
[24] = 19 DAA, g a.i./ha: Cpd 2 100, Atrazine 1680, S-Metolachlor 1870
[25] = 19 DAA, g a.i./ha: Cpd 2 150, S-Metolachlor 1870
[26] = 29 DAA, g a.i./ha: Cpd 2 50, S-Metolachlor 1870
[27] = 29 DAA, g a.i./ha: Cpd 2 100, Atrazine 1680, S-Metolachlor 1870
[28] = 29 DAA, g a.i./ha: Cpd 2 150, S-Metolachlor 1870
[29] = 56 DAA, g a.i./ha: Cpd 2 50, S-Metolachlor 1870
[30] = 56 DAA, g a.i./ha: Cpd 2 100, Atrazine 1680, S-Metolachlor 1870
[31] = 56 DAA, g a.i./ha: Cpd 2 150, S-Metolachlor 1870

## COC(=O)c1nc(C2CC2)nc(N)c1Cl [Compound 2, methyl 6-amino-5-chloro-2-cyclopropyl-4-pyrimidinecarboxylate]
[1]; 28 days after application
  ZEAMD Obs: 0
[1]; 56 days after application
  ZEAMD Obs: 0
[2]; [16]
  SETLU Obs: 0
[2]; [17]
  SETLU Obs: 0
[2]; [18]
  SETLU Obs: 0
[3]; 16 days after application
  ZEAMD Obs: 0%
[3]; 31 days after application
  ZEAMD Obs: 0%
[4]; [19]
  ABUTH Obs: 76%
[4]; [20]
  ABUTH Obs: 81%
[4]; [21]
  ABUTH Obs: 77%
[4]; [22]
  ABUTH Obs: 82%
[5]; [19]
  CHEAL Obs: 83%
[5]; [20]
  CHEAL Obs: 87%
[5]; [21]
  CHEAL Obs: 82%
[5]; [22]
  CHEAL Obs: 99%
[6]; 14 DAA, 30 g a.i./ha
  SETFA Obs: 0%
[6]; 14 DAA, 60 g a.i./ha
  SETFA Obs: 0%
[6]; 28 DAA, 30 g a.i./ha
  SETFA Obs: 0%
[6]; 28 DAA, 60 g a.i./ha
  SETFA Obs: 0%
[7]
  ZEAMD Obs: 0%
[8]; [23]
  ABUTH Obs: 28%
[8]; [24]
  ABUTH Obs: 45%
[8]; [25]
  ABUTH Obs: 58%
[8]; [26]
  ABUTH Obs: 43%
[8]; [27]
  ABUTH Obs: 68%
[8]; [28]
  ABUTH Obs: 90%
[8]; [29]
  ABUTH Obs: 18%
[8]; [30]
  ABUTH Obs: 60%
[8]; [31]
  ABUTH Obs: 85%
[9]; [23]
  DATST Obs: 33%
[9]; [24]
  DATST Obs: 52%
[9]; [25]
  DATST Obs: 65%
[9]; [26]
  DATST Obs: 45%
[9]; [27]
  DATST Obs: 63%
[9]; [28]
  DATST Obs: 85%
[9]; [29]
  DATST Obs: 65%
[9]; [30]
  DATST Obs: 90%
[9]; [31]
  DATST Obs: 100%
[10]; 19 DAA, g a.i./ha: Cpd 2 50
  POLPY Obs: 28%
[10]; 19 DAA, g a.i./ha: Cpd 2 100
  POLPY Obs: 60%
[10]; 19 DAA, g a.i./ha: Cpd 2 150
  POLPY Obs: 65%
[10]; [26]
  POLPY Obs: 30%
[10]; [27]
  POLPY Obs: 50%
[10]; [28]
  POLPY Obs: 70%
[10]; 56 DAA, g a.i./ha: Cpd 2 50
  POLPY Obs: 55%
[10]; 56 DAA, g a.i./ha: Cpd 2 100, Atrazine 1680
  POLPY Obs: 75%
[10]; 56 DAA, g a.i./ha: Cpd 2 150
  POLPY Obs: 95%
[11]; [16]
  ABUTH Obs: 7%
[11]; [17]
  ABUTH Obs: 7%
[11]; [18]
  ABUTH Obs: 13%
[12]; [16]
  AMATA Obs: 20%
[12]; [17]
  AMATA Obs: 10%
[12]; [18]
  AMATA Obs: 23%
[13]; [16]
  AMBEL Obs: 5%
[13]; [17]
  AMBEL Obs: 5%
[13]; [18]
  AMBEL Obs: 20%
[14]; [16]
  XANST Obs: 10%
[14]; [17]
  XANST Obs: 7%
[14]; [18]
  XANST Obs: 27%
[15]; 16 DAA, Cpd 2/Cpd 1 at 62 g a.i./ha
  CCHEC Obs: 0
[15]; 16 DAA, Cpd 2/Cpd 1 at 125 g a.i./ha
  CCHEC Obs: 40
[15]; 30 DAA, Cpd 2/Cpd 1 at 62 g a.i./ha
  CCHEC Obs: 0
[15]; 30 DAA, Cpd 2/Cpd 1 at 125 g a.i./ha
  CCHEC Obs: 40
[15]; 44 DAA, Cpd 2/Cpd 1 at 62 g a.i./ha
  CCHEC Obs: 0
[15]; 44 DAA, Cpd 2/Cpd 1 at 125 g a.i./ha
  CCHEC Obs: 0
[15]; 62 DAA, Cpd 2/Cpd 1 at 62 g a.i./ha
  CCHEC Obs: 0
[15]; 62 DAA, Cpd 2/Cpd 1 at 125 g a.i./ha
  CCHEC Obs: 0
[15]; 91 DAA, Cpd 2/Cpd 1 at 62 g a.i./ha
  CCHEC Obs: 0
[15]; 91 DAA, Cpd 2/Cpd 1 at 125 g a.i./ha
  CCHEC Obs: 0
